Here are results for four compounds from US5126258A (priority 1988, dated 1992).

Molecules are shown by their SMILES. Where two headings read alike, the source gives them in different places.

Series [1] deals with monoclonal antibody P3 6D4. The series is described as follows: Kinetics and inhibition of catalytic ester hydrolysis by monoclonal antibody P3 6D4, spectrophotometric at 245 nm. Conditions: for Ki: substrate Compound 7, read-out: inhibition constant ki, catalytic reaction with Compound 7. The format is biochemical, mouse. Here is the method: FIG. 4 illustrates a Lineweaver-Burk plot for the hydrolysis of Compound 7 by anti-Compound 4 monoclonal antibody from hybridoma P3 6D4. Velocities were determined spectrophotometrically by measuring initial rates during the first linear portion of the reaction as described with reference to Table 2. The substrate concentrations were corrected for amounts consumed during initial equilibration. ( ) No inhibitor present. ( ) Inhibited by 50 nM phosphonate (Compound 3). ( ) Inhibited by 100 nM phosphonate (Compound 3).
In particular, an exemplary monoclonal receptor was produced by the standard hybridoma technology of Kohler et al., Nature, 256, 495 (1975). Specifically, female 129G1X^+ mice were immunized by intraperitoneal injection with an inoculum of 100 micrograms of conjugate (e.g., Compound 4i bound to KLH) in 300 microliters of a 1:1 mixture of phosphate buffered saline (PBS) pH 7.4 and complete Freund's adjuvant. Two weeks later, the mice were again injected in a like manner with 50 micrograms of the foregoing conjugate in 300 microliters of a 1:1 mixture of PBS (pH 7.4) and 10 mg/ml alum. After an additional eight weeks, the mice were immunized intravenously with 50 micrograms of the conjugate in 200 microliters of PBS (pH 7.4). The spleens were removed from the mice 4 days later, and the spleen cells were fused to myeloma cells.
Reaction kinetics were measured spectrophotometrically by following the absorption change at 245 nanometers. […] Kinetic parameters obtained with these substrates are shown in Table 2 along with the inhibition constants obtained with phosphonate (Compound 3). Under these conditions, the acceleration above the background rate is about 960-fold for Compound 7 and about 200-fold for Compound 8 (corrected for the background hydrolysis rate).
*The kinetic parameters shown in Table 2 are for the hydrolysis of esters
(Compounds 7 and 8) by monoclonal antibody P3 6D4. A PerkinElmer lambda 4
spectrophotometer, equipped with thermostatted cell holder, was used to
measure absorption changes at 245 nm. Cells containing the substrate at
concentrations of 0.5 to 50 micromolar in phosphate buffer (50 mM, pH 8.0
were preequilibrated at 25 degrees C. The concentration of active IgG in
stock solution was found by reacting with the coumarin ester (Compound 5)
and measuring the yield of hydroxycoumarin by fluorescence. The kinetic
run was initiated by addition of an aliquot of the antibody stock solutio
(in 50 mM phosphate buffer, pH 8.0) calculated to give 100 nM IgG. The
mixture was allowed to equilibrate for 2 to 3 minutes and the rate was
then measured during the subsequent 10 minutes. The absorption change for
complete hydrolysis was determined by treatment with esterase. Kinetic
parameters were obtained from L ineweaverBurk plots (see FIG. 4).
Inhibition constants were determined from a plot of the slopes with at
least four inhibitor concentrations of Compound 3. The data were analyzed

In series [2] the test system is monoclonal receptor P3 6D4. Nature of the series: Stoichiometric transacylation reaction of monoclonal receptor P3 6D4 with coumarin ester Compound 5 (fluorescence) and its inhibition/inactivation. The class given is biochemical, mouse. Here is the method:
A Perkin-Elmer LS-5 fluorescence spectrometer was operated at a fixed wavelength, using 355 nanometers (nm) for excitation and measuring the emission at 455 nm. A stock solution of the coumarin ester 5 was prepared in dioxane and was diluted to the desired concentrations in Tris-HCl (50 mM, pH 7) or sodium phosphate (50 mM, pH 4-9).
Reactions were run at 23 degrees C and were initiated by the addition of an aliquot of antibody solution (1 mg/ml) to substrate solutions to provide a final protein concentration of 100 nM. Final fluorescence values were determined by hydrolysis of the substrate with pig liver esterase. The observed reaction rate was corrected for spontaneous hydrolysis. Reaction kinetics were studied by measuring initial rates under pseudo-first order conditions. Active protein concentration was extrapolated from fluorescence values at the end of the reaction. The kinetic parameters were obtained by fitting the data to a hyperbolic curve and from double reciprocal plots. Inhibition constants were determined from the Lineweaver-Burk plot data with at least five inhibitor concentrations. All the data were studied by a least squares analysis.
Antibody preparations were inactivated without introducing fluorescent products by the addition of the activated ester (Compound 8) in dioxane to a solution of the IgG (5 mg/ml) in Tris-HCl (50 mM, pH 6.5) at a ratio of 5 moles of the ester (Compound 8) per mole IgG.
Protein modification was performed in an analogous manner, by the addition of a dioxane solution of the reagent at a known concentration to the antibody. The solution was incubated for 30 minutes before filtration through Sephadex G-25. The activity remaining was compared to control samples. Aliquots of IgG (5 mg/ml) inactivated with the ester (Compound 8) were diluted with four volumes of phosphate buffer (50 mM, pH 4-9, at intervals of 1 pH unit). Any pH change was recorded, and the sample was stored at 4 degrees C for 24 hours.
Initially, the ester was used at a concentration that was about four-fold greater than that of the protein, and the mixture was incubated at pH 7.2 for 10 minutes. Any change in fluorescence above background was noted.
The termination of the reaction is noted by the return of the rate of fluorescence increase to the background level.

The test system of the next series is 1209. The series is described as follows: Hydrolysis of reactant ligands by receptor 12C9 (column head prints 1209). Particulars: pH 8.0; receptor/ligand uM, time h: 17 1/10, 2; 18 2/10, 24; 20 2/10, 0.33; 5 1/5, 0.33; 22 5/10, 3.5; preliminary. The class given is biochemical, mouse. Here is the method:
(§1) ^1 Preliminary initial hydrolyses shown as the percentage of admixed
(§2) reactant ligand consumed for catalyzed and spontaneous hydrolyses. "--" =
(§3) No hydrolysis observed. "NT" = Not tried. All reactions were carried out
(§4) at pH 8.0 in a 50 mM phosphate buffer unless otherwise noted. Hydrolytic
(§5) percentages were determined by HPLC using a Hitachi model 655A12 liquid
(§6) chromatograph with a C18 Vydac 201TP54 column, except as noted below.
(§7) Mixtures of acetonitrile a nd water containing 0.1 percent trichloroaceti
(§8) acid [28:72-50:50 (v/v)] were used as elutant. Hydrolyses of Compounds 5
(§9) and 20 were assayed using fluorescence data.
(§10) ^2 Concentrations of receptor molecules (Rec.) and reactant ligands
(§11) (Lig.) in micromolar units, presuming a molecular weight of 150,000
(§12) daltons for each receptor molecule.
(§13) ^3 Reactant ligand (Lig.) used as substrate.
(§14) ^4 Time in hours that the reaction was permitted to take place.
(§15) ^5 Spontaneous hydrolytic percentages for the time period indicated.
(§16) ^6 Reaction carried out at pH 7.2 in a 50 mM phosphate buffer.

Another series relates to 13E10. The series is described as follows: Hydrolysis of reactant ligands by receptor 13E10. The class given is biochemical, mouse. Particulars: pH 8.0; receptor/ligand uM, time h: 17 1/10, 2; 18 2/10, 24; 20 2/10, 0.33; 5 1/5, 0.33; 22 5/10, 3.5; preliminary. The protocol:
as §1, §2, §3, §4, §5, §6, §7, §8, §9, §10, §11, §12, §13, §14, §15, §16

The next series relates to 37G2. The series is described as follows: Hydrolysis of reactant ligands by receptor 37G2. The class given is biochemical, mouse. Conditions: pH 8.0; receptor/ligand uM, time h: 17 1/10, 2; 18 2/10, 24; 20 2/10, 0.33; 5 1/5, 0.33; 22 5/10, 3.5; preliminary. The protocol:
as §1, §2, §3, §4, §5, §6, §7, §8, §9, §10, §11, §12, §13, §14, §15, §16

For a further series, the system named is 22F5. The series is described as follows: Hydrolysis of reactant ligands by receptor 22F5. The class given is biochemical, mouse. Particulars: pH 8.0; receptor/ligand uM, time h: 17 1/10, 2; 18 2/10, 24; 20 2/10, 0.33; 5 1/5, 0.33; 22 5/10, 3.5; preliminary. Here is the method:
as §1, §2, §3, §4, §5, §6, §7, §8, §9, §10, §11, §12, §13, §14, §15, §16

A further series deals with 7E5. Nature of the series: Hydrolysis of reactant ligands by receptor 7E5. The class given is biochemical, mouse. Particulars: pH 8.0; receptor/ligand uM, time h: 17 1/10, 2; 18 2/10, 24; 20 2/10, 0.33; 5 1/5, 0.33; 22 5/10, 3.5; preliminary. Here is the method:
as §1, §2, §3, §4, §5, §6, §7, §8, §9, §10, §11, §12, §13, §14, §15, §16

The next series has as its system 21G2. Nature of the series: Hydrolysis of reactant ligands by receptor 21G2. The format is biochemical, mouse. Particulars: pH 8.0; receptor/ligand uM, time h: 17 1/10, 2; 18 2/10, 24; 20 2/10, 0.33; 5 1/5, 0.33; 22 5/10, 3.5; preliminary. The protocol: as §1, §2, §3, §4, §5, §6, §7, §8, §9, §10, §11, §12, §13, §14, §15, §16
Another series has as its system 17G8. The series is described as follows: Hydrolysis of reactant ligands by receptor 17G8. The class given is biochemical, mouse. Conditions: pH 8.0; receptor/ligand uM, time h: 18 2/10, 24; 20 2/10, 0.33; 5 1/5, 0.33; 22 5/10, 3.5; preliminary. Here is the method: as §1, §2, §3, §4, §5, §6, §7, §8, §9, §10, §11, §12, §13, §14, §15, §16
The test system of another series is 44A2. The series is described as follows: Hydrolysis of reactant ligands by receptor 44A2. The class given is biochemical, mouse. Particulars: pH 8.0; receptor/ligand uM, time h: 17 1/10, 2; 18 2/10, 24; 20 2/10, 0.33; 5 1/5, 0.33; 22 5/10, 3.5; preliminary. The protocol: as §1, §2, §3, §4, §5, §6, §7, §8, §9, §10, §11, §12, §13, §14, §15, §16

The nature of series [3]: Spontaneous (uncatalyzed, background) hydrolysis. The class given is physicochemical. Particulars: pH 8.0, 50 mM phosphate; time (h): 17 2; 18 24; 20 0.33; 5 0.33; 22 3.5. The protocol: The practical range of pH for the assay is limited by the rapid spontaneous rate of hydrolysis of an ester Compound 5 above pH 8.0. Initially, the ester was used at a concentration that was about four-fold greater than that of the protein, and the mixture was incubated at pH 7.2 for 10 minutes. Any change in fluorescence above background was noted.
The lack of spectroscopic distinction between such esters and their hydrolysis products recommended a chromatographic analysis of the process. Referring to FIG. 3, a mixture of Compound 7 (5 uM) and the monoclonal antibody from hybridoma P3 6D4 (0.1 uM) in phosphate buffer (50 mM, pH 8.0) was analyzed over time by high performance liquid chromatography (HPLC). The accelerated hydrolysis of the ester was apparent from the decrease of its peak and the concurrent increase in two new peaks that correspond with the expected products. Under these conditions, the ester is completely consumed in 60-80 minutes during which time the background rate accounts for about 12 to 16 percent hydrolysis. The chromatographic profile is the same as that produced by treatment with hog liver esterase.
^c The rate constants were determined spectrophotometrically (at 245
nm) by measuring initial rates at five concentrations of ester.
as §1, §2, §3, §4, §5, §6, §7, §8, §9, §15
Reaction kinetics were studied using three reactant ligands as substrates for monoclonal receptors 37G2 and 22F5. Data from initial rates were consistent with Michaelis-Menten reaction mechanism for a usual enzyme-substrate system. Initial rates were followed using at 271 nm using a U.V.-visible spectorphotometer for Compound 17, and a fluorescence spectrometer for Compounds 5 and 20, using an excitation wavelength of 355 nm and an emission wavelength of 455 nm for both compounds.

Where [4] appears, read: substrate Compound 5, estimated, read-out: inhibition constant, stoichiometric reaction with Compound 5.

Consider `O=C(O)c1ccccn1` [picolinic acid, reference compound], for which the “effect of additive on rate of reaction of Compound 7 with antibody” value in [1] (picolinic acid alone or picolinic acid and zinc chloride) is “no effect”. In addition, in [2] (up to 100 micromolar added zinc and picolinic acid, EDTA concentration not given), the “effect of additive on antibody-enhanced esterolysis of Compound 5” value is recorded as “No effect”.
Consider `CC(=O)Nc1ccc(OP(=O)(O)Cc2ccc(NC(=O)C(F)(F)F)cc2)c(CNC(=O)c2cccc(C(=O)O)n2)c1` [Compound 3i], for which the Ki in [1] was 160 nM; in series [2] (setting [4]), 35 nM; in series [2] (summary, kinetic parameters at low pH values, read-out: Ki (inhibition of antibody esterolysis)), 35 nM.
With `CC(=O)Nc1ccc(CC(=O)Oc2ccccc2)cc1` [Compound 22], the “hydrolysis by 1209” value with 1209 is 12 percentage of reactant ligand. Further, the “hydrolysis by 13E10” value in the series with 13E10 was 14 percentage of reactant ligand. In the series on 37G2, the “hydrolysis by 37G2” value is listed as 45 percentage of reactant ligand. The “hydrolysis by 22F5” value with 22F5 was 26 percentage of reactant ligand. Further, the “hydrolysis by 7E5” value in the series with 7E5 is 9 percentage of reactant ligand. For the same compound, the “hydrolysis by 21G2” value in the series on 21G2 was 19 percentage of reactant ligand. Also, the “hydrolysis by 17G8” value in the series on 17G8 is 22 percentage of reactant ligand. The “hydrolysis by 44A2” value in the series on 44A2 is 24 percentage of reactant ligand. Moreover, in [3], the “Spon. (spontaneous hydrolysis)” value is on record as 5 percentage of reactant ligand.
As to `CC(=O)Nc1ccc(OP(=O)(O)Cc2ccc(NC(=O)C(F)(F)F)cc2)cc1` [Compound 1i], the results for the Ki in series [1] and in [2] (setting [4]) were 800 nM and 100 nM, respectively.
